# In patent US12059420B2 (BRISTOL-MYERS SQUIBB COMPANY, priority 2018, dated 2024):
# Counter-ions that a name gives are not always drawn.
# Biological target: T1, human IDO1 (Homo sapiens, UniProt P14902)
# T1 construct: expressed in transfected cells
# Experiment: IDO inhibition assay in HEK293 cells stably expressing human IDO1 (kynurenine production, Ehrlich reagent, absorbance 490 nm)
# Format: cell-based
# Settings: 20 hours incubation with compound, 500 nM reference standard = 100% inhibition, read-out: IDO1 HEK Human IC50
# Outline: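 HEK293 clones stably expressing human IDO1 (10,000 cells/well, phenol red-free RPMI, 10% FBS) were treated with compound for 20 hours at 37° C. After 0.2% TCA and 30 min at 50° C., kynurenine was read with Ehrlich reagent at 490 nm. IC50 was normalised to DMSO (0%) and 500 nM reference standard (100%).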
# T1 sequence (P14902 whole entry): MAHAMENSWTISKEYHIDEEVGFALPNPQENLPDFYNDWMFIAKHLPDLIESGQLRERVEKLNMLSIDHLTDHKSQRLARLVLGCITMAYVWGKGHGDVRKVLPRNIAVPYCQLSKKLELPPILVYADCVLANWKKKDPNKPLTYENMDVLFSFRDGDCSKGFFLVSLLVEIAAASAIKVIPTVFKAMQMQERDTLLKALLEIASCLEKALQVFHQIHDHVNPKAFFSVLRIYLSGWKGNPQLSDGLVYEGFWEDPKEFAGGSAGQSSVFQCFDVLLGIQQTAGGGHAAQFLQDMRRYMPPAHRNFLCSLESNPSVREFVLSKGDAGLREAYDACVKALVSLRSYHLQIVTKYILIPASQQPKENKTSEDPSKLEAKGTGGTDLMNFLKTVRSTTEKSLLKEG
row,SMILES,IC50 [nM]
1,"Cc1ccc(CC(=O)Nc2cc(-c3ccccc3-c3nnn[nH]3)nc(N(Cc3ccccc3)CC3CC3)n2)cc1 [Example 22, N-(6-(2-(1H-tetrazol-5-yl)phenyl)-2-(benzyl(cyclopropylmethyl)amino)pyrimidin-4-yl)-2-(p-tolyl)acetamide]",32.4
2,"CC(C)CN(Cc1ccccc1)c1cc(Nc2ncccc2C#N)cc(-c2ccccc2-c2nnn[nH]2)n1 [Example 163, 2-((2-(2-(1H-tetrazol-5-yl)phenyl)-6-(benzyl(isobutyl)amino)pyridin-4-yl)amino)nicotinonitrile]",736
3,"Cc1cc(F)cnc1Nc1cc(-c2ccccc2-c2nnn[nH]2)nc(N(Cc2ccccc2)CC(C)C)c1 [Example 152, 6-(2-(1H-tetrazol-5-yl)phenyl)-N2-benzyl-N4-(5-fluoro-3-methylpyridin-2-yl)-N2-isobutylpyridine-2,4-diamine]",129
4,"CC(C)CN(Cc1ccc(F)cc1)c1cc(Nc2nc3ccccc3s2)cc(-c2ccccc2-c2nnn[nH]2)n1 [Example 43, 6-(2-(1H-tetrazol-5-yl)phenyl)-N4-(benzo[d]thiazol-2-yl)-N2-(4-fluorobenzyl)-N2-isobutylpyridine-2,4-diamine, TFA]",31.2
5,CCCN(Cc1ccccc1)c1cc(NC(=O)CC2CCC(C)CC2)cc(-c2ccccc2-c2nnn[nH]2)n1 (stereo not drawn) [Example 294],774
6,"Cc1cnc(Nc2cc(-c3ccccc3-c3nnn[nH]3)nc(N(Cc3ccccc3)CC(C)C)c2)nc1 [Example 51, 6-(2-(1H-tetrazol-5-yl)phenyl)-N2-benzyl-N2-isobutyl-N4-(5-methylpyrimidin-2-yl)pyridine-2,4-diamine]",60.3
7,CCN(Cc1ccccc1)c1cc(NC(=O)Nc2ccc(OC(F)(F)F)cc2)cc(-c2ccccc2-c2nnn[nH]2)n1 [Example 277],782
8,"CC(C)CN(Cc1ccccc1)c1cc(NC(=O)Nc2ccc(F)cc2F)cc(-c2ccccc2-c2nnn[nH]2)n1 [Example 237, 1-(2-(2-(1H-tetrazol-5-yl)phenyl)-6-(benzyl(isobutyl)amino)pyridin-4-yl)-3-(2,4-difluorophenyl)urea]",131
9,"CCCN(Cc1ccccc1)c1cc(NC(=O)C(F)c2ccccc2)cc(-c2ccccc2-c2nn[nH]n2)n1 (stereo not drawn) [Example 212, N-(2-(2-(2H-tetrazol-5-yl)phenyl)-6-(benzyl(propyl)amino)pyridin-4-yl)-2-fluoro-2-phenylacetamide]",224
10,"CCCN(Cc1ccccc1)c1cc(NC(=O)Cc2csc3ccccc23)cc(-c2ccccc2-c2nn[nH]n2)n1 [Example 216, N-(2-(2-(2H-tetrazol-5-yl)phenyl)-6-(benzyl(propyl)amino)pyridin-4-yl)-2-(benzo[b]thiophen-3-yl)acetamide]",76.8
11,"CC(C)CN(Cc1ccccc1)c1cc(Nc2ccc(C#N)cn2)cc(-c2ccccc2-c2nnn[nH]2)n1 [Example 150, 6-((2-(2-(1H-tetrazol-5-yl)phenyl)-6-(benzyl(isobutyl)amino)pyridin-4-yl)amino)nicotinonitrile]",23.9
12,"CC(C)CN(Cc1ccccc1)c1cc(Nc2ccc3nncn3n2)cc(-c2ccccc2-c2nnn[nH]2)n1 [Example 165, 6-(2-(1H-tetrazol-5-yl)phenyl)-N4-([1,2,4]triazolo[4,3-b]pyridazin-6-yl)-N2-benzyl-N2-isobutylpyridine-2,4-diamine]",1120
13,CCCN(Cc1ccccc1)c1cc(NC(=O)CC2CCOCC2)cc(-c2ccccc2-c2nnn[nH]2)n1 [Example 295],3730
14,"CCCN(Cc1ccccc1)c1cc(NC(=O)Cc2cccnc2)cc(-c2ccccc2-c2nn[nH]n2)n1 [Example 226, N-(2-(2-(2H-tetrazol-5-yl)phenyl)-6-(benzyl(propyl)amino)pyridin-4-yl)-2-(pyridin-3-yl)acetamide]",3360
15,"CCCN(CC1CC1)c1cc(NC(=O)Cc2ccc(F)cc2F)cc(-c2ccccc2-c2nnn[nH]2)n1 [Example 70, N-(2-(2-(1H-tetrazol-5-yl)phenyl)-6-((cyclopropylmethyl)(propyl)amino)pyridin-4-yl)-2-(2,4-difluorophenyl)acetamide, TFA]",422
16,"Cc1ccc(Nc2cc(-c3ccccc3-c3nnn[nH]3)nc(N(Cc3ccccc3)CC(C)C)c2)nn1 [Example 157, 6-(2-(1H-tetrazol-5-yl)phenyl)-N2-benzyl-N2-isobutyl-N4-(6-methylpyridazin-3-yl)pyridine-2,4-diamine]",540
17,"COc1cnc(Nc2cc(-c3ccccc3-c3nnn[nH]3)nc(N(Cc3ccccc3)CC(C)C)c2)nc1 [Example 172, 6-(2-(1H-tetrazol-5-yl)phenyl)-N2-benzyl-N2-isobutyl-N4-(5-methoxypyrimidin-2-yl)pyridine-2,4-diamine]",14.4
18,"CCCN(Cc1ccccc1)c1cc(NC(=O)C2(c3ccccc3)CC2)cc(-c2ccccc2-c2nn[nH]n2)n1 [Example 223, N-(2-(2-(2H-tetrazol-5-yl)phenyl)-6-(benzyl(propyl)amino)pyridin-4-yl)-1-phenylcyclopropanecarboxamide]",964

row,SMILES,IC50 [nM]
1,"CCCN(Cc1ccccc1)c1cc(NC(=O)Nc2cc(C)cc(C)c2)cc(-c2ccccc2-c2nnn[nH]2)n1 [Example 263, 1-(2-(2-(1H-tetrazol-5-yl)phenyl)-6-(benzyl(propyl)amino)pyridin-4-yl)-3-(3,5-dimethylphenyl)urea]",145
2,"CC(C)CN(Cc1ccccc1)c1cc(NC(=O)Nc2ccc(F)cc2)cc(-c2ccccc2-c2nnn[nH]2)n1 [Example 69, 1-(2-(2-(1H-tetrazol-5-yl)phenyl)-6-(benzyl(isobutyl)amino)pyridin-4-yl)-3-(4-fluorophenyl)urea, TFA]",134
3,"CCCN(Cc1ccccc1)c1cc(Nc2ccc3nc(C)sc3c2)cc(-c2ccccc2-c2nnn[nH]2)n1 [Example 58, 6-(2-(1H-tetrazol-5-yl)phenyl)-N2-benzyl-N4-(2-methylbenzo [d]thiazol-6-yl)-N2-propylpyridine-2,4-diamine]",4.2
4,CCCN(Cc1ccccc1)c1cc(NC(=O)Cc2cccnc2)cc(-c2ccccc2-c2nn[nH]n2)n1 [Example 292],3360
5,CCCN(Cc1ccccc1)c1cc(NC(=O)Nc2cc(C)ccn2)cc(-c2ccccc2-c2nnn[nH]2)n1 [Example 299],845
6,"CCN(Cc1ccccc1)c1cc(NC(=O)Nc2ccc(C)cc2)cc(-c2ccccc2-c2nnn[nH]2)n1 [Example 274, 1-(2-(2-(1H-Tetrazol-5-yl)phenyl)-6-(benzyl(ethyl)amino)pyridin-4-yl)-3-(p-tolyl)urea]",26.8
7,"Cc1ccc(CC(=O)Nc2cc(-c3ccccc3-c3nnn[nH]3)nc(N3CCCC3)c2)cc1 [Example 131, N-(2-(2-(1H-tetrazol-5-yl)phenyl)-6-(pyrrolidin-1-yl)pyridin-4-yl)-2-(p-tolyl)acetamide]",1600
8,"Cc1ccc(CC(=O)Nc2cc(-c3cc(F)ccc3-c3nnn[nH]3)nc(N(Cc3ccccc3)CC(C)C)c2)cc1 [Example 89, N-(2-(benzyl(isobutyl)amino)-6-(5-fluoro-2-(1H-tetrazol-5-yl)phenyl)pyridin-4-yl)-2-(p-tolyl)acetamide, TFA]",150
9,"CC(C)CN(Cc1ccccc1)c1cc(Nc2ccc3c(c2)OCO3)cc(-c2ccccc2-c2nnn[nH]2)n1 [Example 57, 6-(2-(1H-tetrazol-5-yl)phenyl)-N4-(benzo[d][1,3]dioxol-5-yl)-N2-benzyl-N2-isobutylpyridine-2,4-diamine]",4
10,CCN(Cc1ccccc1)c1cc(NC(=O)Cc2cccnc2)cc(-c2ccccc2-c2nnn[nH]2)n1 [Example 284],1620
11,"CC(C)CN(Cc1ccccc1)c1cc(Nc2nccc(N3CCOCC3)n2)cc(-c2ccccc2-c2nnn[nH]2)n1 [Example 53, 6-(2-(1H-tetrazol-5-yl)phenyl)-N2-benzyl-N2-isobutyl-N4-(4-morpholinopyrimidin-2-yl)pyridine-2,4-diamine, TFA]",4.9
12,"CC(C)CN(Cc1ccccc1)c1cc(NC(=O)Cc2ccc(C(C)C)cc2)cc(-c2ccccc2-c2nnn[nH]2)n1 [Example 230, N-(2-(2-(1H-tetrazol-5-yl)phenyl)-6-(benzyl(isobutyl)amino)pyridin-4-yl)-2-(4-isopropylphenyl)acetamide]",139
13,"Cc1ccc(Nc2cc(-c3ccccc3-c3nnn[nH]3)nc(N(Cc3ccccc3)CC(C)C)c2)nc1 [Example 142, 6-(2-(1H-tetrazol-5-yl)phenyl)-N2-benzyl-N2-isobutyl-N4-(5-methylpyridin-2-yl)pyridine-2,4-diamine]",36.8
14,"CC(C)CN(Cc1ccccc1)c1cc(Nc2ncc(C(C)C)cn2)cc(-c2ccccc2-c2nnn[nH]2)n1 [Example 158, 6-(2-(1H-tetrazol-5-yl)phenyl)-N2-benzyl-N2-isobutyl-N4-(5-isopropylpyrimidin-2-yl)pyridine-2,4-diamine]",444
15,"CCCN(CC1CC1)c1nc(NC(=O)Nc2ccc(OC(F)(F)F)cc2)cc(-c2ccccc2-c2nnn[nH]2)n1 [Example 67, 1-(6-(2-(1H-tetrazol-5-yl)phenyl)-2-((cyclopropylmethyl) (propyl)amino)pyrimidin-4-yl)-3-(4-(trifluoromethoxy)phenyl)urea]",2470
16,"CC(C)CN(Cc1ccccc1)c1cc(Nc2nc3ccc(F)cc3s2)cc(-c2ccccc2-c2nnn[nH]2)n1 [Example 156, 6-(2-(1H-tetrazol-5-yl)phenyl)-N2-benzyl-N4-(6-fluorobenzo[d]thiazol-2-yl)-N2-isobutylpyridine-2,4-diamine]",115
17,"CCCN(Cc1ccccc1)c1cc(NC(=O)Nc2ccc(F)cc2F)cc(-c2ccccc2-c2nnn[nH]2)n1 [Example 71, 1-(2-(2-(1H-tetrazol-5-yl)phenyl)-6-(benzyl(propyl)amino)pyridin-4-yl)-3-(2,4-difluorophenyl)urea, TFA]",32.2
18,"CCCN(Cc1ccccc1)c1cc(NC(=O)Cc2ccccc2OC)cc(-c2ccccc2-c2nn[nH]n2)n1 [Example 203, N-(2-(2-(2H-tetrazol-5-yl)phenyl)-6-(benzyl(propyl)amino)pyridin-4-yl)-2-(2-methoxyphenyl)acetamide]",305
